Laboratory results published in patent publication US10899737B2, “Piperazine carbamates and methods of making and using same” (Lundbeck La Jolla Research Center, Inc., priority 2016, dated 2021).

What was measured:
MAGL [1] = target: T1, MAGL (Homo sapiens, UniProt Q99685); assay: In vitro competitive activity-based protein profiling (human), MAGL; type: biochemical; conditions: for inhibition at 1 µM: 1 μM inhibitor, human proteome, 30 min preincubation at 37° C, read-out: MAGL % inh. 1 μM (human); for IC50: human PC3
T1 construct: Proteomes (human prefrontal cortex or cell membrane fractions); from tissue
T1 sequence (Q99685 1-303): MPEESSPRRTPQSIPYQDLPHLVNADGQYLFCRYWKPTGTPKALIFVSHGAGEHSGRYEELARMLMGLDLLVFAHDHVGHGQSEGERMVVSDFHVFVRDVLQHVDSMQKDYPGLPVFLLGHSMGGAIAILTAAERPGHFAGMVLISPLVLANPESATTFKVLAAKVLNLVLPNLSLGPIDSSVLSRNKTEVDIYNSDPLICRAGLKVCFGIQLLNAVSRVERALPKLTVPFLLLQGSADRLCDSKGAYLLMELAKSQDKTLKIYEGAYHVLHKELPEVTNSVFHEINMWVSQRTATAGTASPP
In short: (§1)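 Human prefrontal cortex or cell membrane proteomes (1.0-2.0 mg/mL protein) preincubated 30 min at 37° C with inhibitor, then labeled 30 min RT with FP-Rh or JW912 probe. After SDS-PAGE, activity taken from fluorescent band intensity for each enzyme.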

ABHD6 [2] = target: T2, ABHD6 (Homo sapiens, UniProt Q9BV23); assay: In vitro competitive activity-based protein profiling (human), ABHD6; type: biochemical; conditions: human PC3
T2 construct: Proteomes (human prefrontal cortex or cell membrane fractions); endogenous in cells; human prefrontal cortex
T2 sequence (Q9BV23 1-337): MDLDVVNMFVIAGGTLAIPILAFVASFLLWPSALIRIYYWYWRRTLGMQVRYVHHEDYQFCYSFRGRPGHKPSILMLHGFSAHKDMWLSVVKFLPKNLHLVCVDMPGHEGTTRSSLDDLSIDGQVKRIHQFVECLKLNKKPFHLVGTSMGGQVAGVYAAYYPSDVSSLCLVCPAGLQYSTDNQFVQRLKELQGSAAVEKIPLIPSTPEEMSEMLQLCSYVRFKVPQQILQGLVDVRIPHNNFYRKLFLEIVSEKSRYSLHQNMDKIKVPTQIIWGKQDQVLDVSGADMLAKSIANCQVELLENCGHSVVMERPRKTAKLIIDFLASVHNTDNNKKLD
In short: as §1

MAGL [3] = target: T3, MAGL (Mus musculus, UniProt O35678); assay: In vitro competitive activity-based protein profiling (mouse), MAGL; type: biochemical; conditions: for inhibition at 1 µM: 1 μM inhibitor, mouse brain membrane fraction or cell lysates, read-out: MAGL % inh. 1 μM (mouse); for IC50: mouse proteome
T3 construct: Proteomes (mouse brain membrane fraction or cell lysates); from tissue; host or cells: mouse brain membrane fraction or cell lysates
T3 sequence (O35678 1-303): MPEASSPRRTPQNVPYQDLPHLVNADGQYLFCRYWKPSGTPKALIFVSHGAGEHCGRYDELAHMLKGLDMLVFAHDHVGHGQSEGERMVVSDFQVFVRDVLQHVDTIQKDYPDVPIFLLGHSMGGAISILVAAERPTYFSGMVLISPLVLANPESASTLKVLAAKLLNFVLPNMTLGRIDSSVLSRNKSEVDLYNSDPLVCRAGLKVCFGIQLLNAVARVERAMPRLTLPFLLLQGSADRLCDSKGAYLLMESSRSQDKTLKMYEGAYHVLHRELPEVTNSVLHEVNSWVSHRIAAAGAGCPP
In short: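 Mouse brain membrane fraction or cell lysate proteomes (50 μL, 1.0 mg/mL total protein) were preincubated with inhibitors at varying concentrations for 30 min at 37° C. FP-Rh (1.0 μL, 50 μM in DMSO) was then added for a further 30 min at 37° C. Samples were quenched with 4× SDS loading buffer and resolved by SDS-PAGE. MAGL activity was quantified from fluorescent gel band intensity using ImageJ 1.49 k.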

ABHD6 [4] = target: T4, ABHD6 (Mus musculus, UniProt Q8R2Y0); assay: In vitro competitive activity-based protein profiling (mouse), ABHD6; type: biochemical; conditions: 1 μM inhibitor, mouse brain membrane fraction or cell lysates; read-out: ABHD6 % inh. 1 μM (mouse)
T4 construct: Proteomes (mouse brain membrane fraction or cell lysates); from tissue; host or cells: mouse brain membrane fraction or cell lysates
T4 sequence (Q8R2Y0 1-336): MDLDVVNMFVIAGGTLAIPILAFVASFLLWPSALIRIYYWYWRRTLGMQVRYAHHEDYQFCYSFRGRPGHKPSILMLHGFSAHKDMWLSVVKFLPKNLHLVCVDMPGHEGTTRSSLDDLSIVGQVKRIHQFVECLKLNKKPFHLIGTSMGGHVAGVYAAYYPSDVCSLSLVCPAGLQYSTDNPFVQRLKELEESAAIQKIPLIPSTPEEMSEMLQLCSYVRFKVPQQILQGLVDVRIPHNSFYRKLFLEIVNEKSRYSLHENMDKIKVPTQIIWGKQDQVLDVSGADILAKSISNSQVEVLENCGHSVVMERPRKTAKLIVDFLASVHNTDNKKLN
In short: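 Mouse brain membrane proteome or cell lysate (1.0 mg/mL protein) preincubated 30 min at 37 °C with inhibitor, then labelled 30 min at 37 °C with FP-rhodamine probe. Remaining MAGL and ABHD6 activity quantified by in-gel fluorescence band intensity after SDS-PAGE; values are % inhibition at 1 μM.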

MAGL [5] = target: T3, MAGL; assay: Mouse brain proteomes from inhibitor treated mice, MAGL inhibition; type: in vivo; conditions: 5 mg/kg oral gavage, C57Bl/6J mouse brain, 4 h following administration; read-out: MAGL % inh. 5 mg/kg (mouse)
Method: Preparation of Mouse Brain Proteomes from Inhibitor Treated Mice.
Inhibitors were administered to wild-type C57Bl/6J by oral gavage in a vehicle of polyethylene glycol. Each animal was sacrificed 4 h following administration and brain proteomes were prepared and analyzed according to previously established methods (See Niphakis, M. J., et al. (2011) ACS Chem. Neurosci. and Long, J. Z., et al. Nat. Chem. Biol. 5:37-44).

O=C(O)C1CCN(C(=O)c2cc(C(F)(F)F)ccc2CN2CCN(C(=O)OC(C(F)(F)F)C(F)(F)F)CC2)CC1 [Example 35, 1-(2-((4-(((1,1,1,3,3,3-Hexafluoropropan-2-yl)oxy)carbonyl)piperazin-1-yl)methyl)-5-(trifluoromethyl)benzoyl)piperidine-4-carboxylic Acid]
inhibition at 1 µM (MAGL [1]): ≥ 75% | IC50 (MAGL [1]): 0.1 to 1 µM | IC50 (ABHD6 [2]): 1 to 10 µM | inhibition at 1 µM (MAGL [3]): ≥ 75% | IC50 (MAGL [3]): 0.1 to 1 µM | inhibition at 1 µM (ABHD6 [4]): 0 to 25% | inhibition at 5 mg/kg (MAGL [5]): 0 to 25%

O=C(O)C1CCN(c2cc(S(F)(F)(F)(F)F)ccc2CN2CCN(C(=O)OC(C(F)(F)F)C(F)(F)F)CC2)CC1 [Example 78, 1-(2-((4-(((1,1,1,3,3,3-hexafluoropropan-2-yl)oxy)carbonyl)piperazin-1-yl)methyl)-5-(pentafluoro-16-sulfaneyl)phenyl)piperidine-4-carboxylic acid]
inhibition at 1 µM (MAGL [1]): ≥ 75% | IC50 (MAGL [1]): ≤ 0.1 µM | IC50 (ABHD6 [2]): 1 to 10 µM | inhibition at 1 µM (MAGL [3]): ≥ 75% | inhibition at 1 µM (ABHD6 [4]): ≥ 75% | inhibition at 5 mg/kg (MAGL [5]): ≥ 75%

O=C(OC(C(F)(F)F)C(F)(F)F)N1CCN(Cc2ccc(Cl)cc2C2(C(=O)O)CCCC2)CC1 [Example 26, 1-(5-Chloro-2-((4-(((1,1,1,3,3,3-hexafluoropropan-2-yl)oxy)carbonyl)piperazin-1-yl)methyl)phenyl)cyclopentane-1-carboxylic Acid]
inhibition at 1 µM (MAGL [1]): ≥ 75% | IC50 (MAGL [1]): ≤ 0.1 µM | IC50 (ABHD6 [2]): 1 to 10 µM | inhibition at 1 µM (MAGL [3]): ≥ 75% | inhibition at 1 µM (ABHD6 [4]): 0 to 25% | inhibition at 5 mg/kg (MAGL [5]): ≥ 75%

O=C(O)C1CCN(C(=O)c2cc(CN3CCN(C(=O)OC(C(F)(F)F)C(F)(F)F)CC3)ccc2C(F)(F)F)CC1 [Example 46, 1-(5-((4-(((1,1,1,3,3,3-hexafluoropropan-2-yl)oxy)carbonyl)piperazin-1-yl)methyl)-2-(trifluoromethyl)benzoyl)piperidine-4-carboxylic acid]
inhibition at 1 µM (MAGL [1]): ≥ 75% | IC50 (MAGL [1]): ≤ 0.1 µM | IC50 (ABHD6 [2]): 1 to 10 µM | inhibition at 1 µM (MAGL [3]): ≥ 75% | inhibition at 1 µM (ABHD6 [4]): 0 to 25% | inhibition at 5 mg/kg (MAGL [5]): 0 to 25%

O=C(O)CN1CCC2(CC1)CN(c1cc(C(F)(F)F)ccc1CN1CCN(C(=O)OC(C(F)(F)F)C(F)(F)F)CC1)C2 [Example 17, 2-(2-(2-((4-(((1,1,1,3,3,3-Hexafluoropropan-2-yl)oxy)carbonyl)piperazin-1-yl)methyl)-5-(trifluoromethyl)phenyl)-2,7-diazaspiro[3.5]nonan-7-yl)acetic Acid]
inhibition at 1 µM (MAGL [1]): ≥ 75% | IC50 (MAGL [1]): ≤ 0.1 µM | IC50 (ABHD6 [2]): 1 to 10 µM | inhibition at 1 µM (MAGL [3]): ≥ 75% | inhibition at 1 µM (ABHD6 [4]): 0 to 25% | inhibition at 5 mg/kg (MAGL [5]): 0 to 25%

O=C(O)Cn1ccc(-c2cc(Cl)ccc2CN2CCN(C(=O)OC(C(F)(F)F)C(F)(F)F)CC2)n1 [Example 12, 2-(3-(5-Chloro-2-((4-(((1,1,1,3,3,3-hexafluoropropan-2-yl)oxy)carbonyl)piperazin-1-yl)methyl)phenyl)-1H-pyrazol-1-yl)acetic Acid]
inhibition at 1 µM (MAGL [1]): ≥ 75% | IC50 (MAGL [1]): ≤ 0.1 µM | IC50 (ABHD6 [2]): 0.1 to 1 µM | inhibition at 1 µM (MAGL [3]): ≥ 75% | inhibition at 1 µM (ABHD6 [4]): 0 to 25% | inhibition at 5 mg/kg (MAGL [5]): 0 to 25%

CC1(C(=O)O)CCN(c2cc(Cl)ccc2CN2CCN(C(=O)OC(C(F)(F)F)C(F)(F)F)CC2)CC1 [Example 63, 1-(5-chloro-2-((4-(((1,1,1,3,3,3-hexafluoropropan-2-yl)oxy)carbonyl)piperazin-1-yl)methyl)phenyl)-4-methylpiperidine-4-carboxylic acid]
inhibition at 1 µM (MAGL [1]): ≥ 75% | IC50 (MAGL [1]): ≤ 0.1 µM | IC50 (ABHD6 [2]): 0.1 to 1 µM | inhibition at 1 µM (MAGL [3]): ≥ 75% | inhibition at 1 µM (ABHD6 [4]): 50 to 75% | inhibition at 5 mg/kg (MAGL [5]): ≥ 75%

O=C(O)Cn1cc(-c2cc(C(F)(F)F)ccc2CN2CCN(C(=O)OC(C(F)(F)F)C(F)(F)F)CC2)cn1 [Example 6, 2-(4-(2-((4-(((1,1,1,3,3,3-Hexafluoropropan-2-yl)oxy)carbonyl)piperazin-1-yl)methyl)-5-(trifluoromethyl)phenyl)-1H-pyrazol-1-yl)acetic Acid]
inhibition at 1 µM (MAGL [1]): ≥ 75% | IC50 (MAGL [1]): ≤ 0.1 µM | IC50 (ABHD6 [2]): 1 to 10 µM | inhibition at 1 µM (MAGL [3]): ≥ 75% | IC50 (MAGL [3]): ≤ 0.1 µM | inhibition at 1 µM (ABHD6 [4]): ≥ 75% | inhibition at 5 mg/kg (MAGL [5]): 0 to 25%

O=C(O)CN1CCC(c2cc(C(F)(F)F)ccc2CN2CCN(C(=O)OC(C(F)(F)F)C(F)(F)F)CC2)CC1 [Example 31, 2-(4-(2-((4-(((1,1,1,3,3,3-Hexafluoropropan-2-yl)oxy)carbonyl)piperazin-1-yl)methyl)-5-(trifluoromethyl)phenyl)piperidin-1-yl)acetic Acid]
inhibition at 1 µM (MAGL [1]): ≥ 75% | IC50 (MAGL [1]): 0.1 to 1 µM | IC50 (ABHD6 [2]): 1 to 10 µM | inhibition at 1 µM (MAGL [3]): ≥ 75% | inhibition at 1 µM (ABHD6 [4]): 0 to 25% | inhibition at 5 mg/kg (MAGL [5]): 0 to 25%

CC1(NCC(=O)O)CCN(c2cc(C(F)(F)F)ccc2CN2CCN(C(=O)OC(C(F)(F)F)C(F)(F)F)CC2)CC1 [Example 51, (1-(2-((4-(((1,1,1,3,3,3-hexafluoropropan-2-yl)oxy)carbonyl)piperazin-1-yl)methyl)-5-(trifluoromethyl)phenyl)-4-methylpiperidin-4-yl)glycine]
inhibition at 1 µM (MAGL [1]): ≥ 75% | IC50 (MAGL [1]): ≤ 0.1 µM | IC50 (ABHD6 [2]): 1 to 10 µM | inhibition at 1 µM (MAGL [3]): ≥ 75% | inhibition at 1 µM (ABHD6 [4]): 0 to 25% | inhibition at 5 mg/kg (MAGL [5]): 0 to 25%

O=C(O)CN1CC2(CCN(c3cc(C(F)(F)F)ccc3CN3CCN(C(=O)OC(C(F)(F)F)C(F)(F)F)CC3)C2)C1 [Example 22, 2-(6-(2-((4-(((1,1,1,3,3,3-Hexafluoropropan-2-yl)oxy)carbonyl)piperazin-1-yl)methyl)-5-(trifluoromethyl)phenyl)-2,6-diazaspiro[3.4]octan-2-yl)acetic Acid]
inhibition at 1 µM (MAGL [1]): ≥ 75% | IC50 (MAGL [1]): ≤ 0.1 µM | IC50 (ABHD6 [2]): 1 to 10 µM | inhibition at 1 µM (MAGL [3]): ≥ 75% | inhibition at 1 µM (ABHD6 [4]): 0 to 25% | inhibition at 5 mg/kg (MAGL [5]): 0 to 25%

CC1(C(=O)O)CN(c2cc(C(F)(F)F)ccc2CN2CCN(C(=O)OC(C(F)(F)F)C(F)(F)F)CC2)CCO1 (stereo not drawn) [Example 57, 4-{2-[(4-{[(1,1,1,3,3,3-hexafluoropropan-2-yl)oxy]carbonyl}piperazin-1-yl)methyl]-5-(trifluoromethyl)phenyl}-2-methylmorpholine-2-carboxylic acid]
inhibition at 1 µM (MAGL [1]): ≥ 75% | IC50 (MAGL [1]): ≤ 0.1 µM | IC50 (ABHD6 [2]): 1 to 10 µM | inhibition at 1 µM (MAGL [3]): ≥ 75% | IC50 (MAGL [3]): ≤ 0.1 µM | inhibition at 1 µM (ABHD6 [4]): 0 to 25% | inhibition at 5 mg/kg (MAGL [5]): 0 to 25%
